We go through eleven molecules from PubChem BioAssay AID1918955 (Molecular Pharmacology Branch, DTP, NCI, 2023).

Structures are written as SMILES. pIC50: −log10 of the molar value. Values joined by “and” are separate entries in the source; they are usually repeats but may differ in a detail not shown here. Equal values may be shown once.

In general, viability, T/C refers to the ratio of treated to control. As a reminder, the pIC50 is the negative decadic logarithm of the IC50, by convention in mol/L.

This test relates to NCI/ADR-RES complex spheroid viability. Description: Anticancer human tumor NCI/ADR-RES cell line growth inhibition.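 For all read-outs here: spheroids exposed to compounds for 7 days.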 To be noted: for viability, T/C: stronger effect = lower value; for pIC50: curve of compound. An excerpt: Multicellular complex tumor spheroid response to LSD1 Inhibitor Iadademstat in combination with a variety of drugs and investigational agents in selected tumor cell lines
The current study was undertaken to assess response to LSD1 inhibitors in combination with standard-of-care drugs and investigational agents in solid tumor complex spheroid models as well as in the K-562 leukemia. Complex spheroids include a stromal component modeled by human endothelial cells (HUVEC) and fibroblasts modeled by human mesenchymal stem cells (MSCs). The concentration ranges selected for each drug and investigational agent were based upon clinically achievable concentrations if the clinical Cmax of the agent was known.
Compounds. The drugs and investigational agents used in this study are listed on Table 1. All of the agents used, including staurosporine (NSC755774) and gemcitabine (NSC613327), were obtained from the Developmental Therapeutics Program, NCI. FDA-approved anticancer drugs are available from the NCI at http://dtp.nci.nih.gov/branches/dscb/oncology_drugset_explanation.html. Drugs and investigational agents were >95% pure by proton nuclear magnetic resonance (NMR) and liquid chromatography/mass spectrometry (LC/MS). Stock solutions were prepared at 400x in DMSO, stored at -70 degrees C, and diluted in fresh medium prior to their use. The final concentration of DMSO in cell culture wells never exceeded 0.25% (v/v). The FDA-approved anticancer drug set is available from the Developmental Therapeutics Program at https://dtp.cancer.gov/organization/dscb/obtaining/available_plates.htm. All drugs and investigational agents were tested over a range starting from a high concentration at or near the clinical Cmax and decreasing in half-log increments. If the clinical Cmax for an agent had not been determined, the highest concentration tested was 10 microM.
Cell Lines. The patient-derived cancer cell (PDC) lines: 292921-168-R-J2-PDC, K24384-001-R-PDC, and 521955-158-R2-J5-PDC pancreatic carcinomas, 556581-035-R-J1 ovarian carcinoma, 324938-238-R-J1-PDC, 855422-203-R-J1-PDC and 883617-216-R-J1-PDC urothelial bladder carcinomas, 743489-274-T-PDC renal cell carcinoma, 138582-R-J1 Merkel cell tumor, K60290-347-R-J1 and K57222-313-R-J1-PDC glioblastomas, 653999-131-R-J2-PDC, LG0703-F948-PDC, and 349418-098-R-PDC non-small cell lung carcinomas, 885512-296-R-J2-PDC, 171881-019-R-J1-PDC breast carcinomas and 186277-243-T-J2-PDC and 233499-124-R-J2-PDC colon carcinomas were obtained from the NCI Patient-Derived Models Repository (PDMR, https://pdmr.cancer.gov). The established cell lines NCI/ADR-RES (RRID:CVCL_14520 and OVCAR-5 (RRID:CVCL_1628) ovarian carcinomas, 786-O (RRID:CVCL_1051) and A498 (RRID:CVCL_A498) renal cell carcinoma, NCI-H211 (ATCC, cat. CRL-5824; RRID:CVCL_1529), NCI-H196 (ATCC, cat. CRL-5823, RRID:CVCL_1509), SW 1271 (ATCC, cat. CRL-2177, RRID:CVCL_1716) and NCI-H1876 (ATCC, cat. CRL-5902, RRID:CVCL_1503) small cell lung carcinomas, MDA-MB-231 (RRID:CVCL_0062) and MDA-MB-468 (RRID:CVCL_0419)breast carcinomas (10-12). Pooled donor human umbilical vein endothelial cells (HUVEC, Lonza, cat. CC-2519) and human mesenchymal stem cells (hMSC, Lonza, cat. PT-2501) were purchased from Lonza (Walkersville, MD).
Cell Culture. All cells were maintained in an incubator at 37 degrees C and 5% CO2 with 95% humidity. The PDC lines were cultured according to standard operating procedures established by the NCI PDMR (https://pdmr.cancer.gov). Briefly all PDCs were thawed and cultured in Matrigel-coated flasks prepared with a working solution of 1X Ham's F-12 nutrient mix, without supplementation (Invitrogen, Waltham, MA, cat. 11765054), 100 U/mL penicillin-streptomycin (Invitrogen, cat. 15140122), and 2.5% Matrigel (Corning Inc., Corning, NY, cat. 354248) for the first three passages. […]

Consider `CC(C)CC(NC(=O)C(Cc1ccccc1)NC(=O)c1cnccn1)B(O)O` (configuration not stated), for which the negative-log IC50 (pIC50) was 8.03 and 8.00. The viability, T/C (compound 0.000316 µM) was 96.1% and 106%. In addition, for the setting “compound 0.001 µM”, the viability, T/C is 102% and 107%. Moreover, the viability, T/C (compound 0.00316 µM) was 92.5% and 93.3%. In addition, under “compound 0.01 µM”, the viability, T/C was 47.3% and 51.2%. Moreover, the viability, T/C (compound 0.0316 µM) was 5.97% and 5.35%. In addition, the viability, T/C (compound 0.1 µM) is 2.36% and 0.51%.
Turning to `CC(C)CC(NC(=O)CNC(=O)c1cc(Cl)ccc1Cl)B1OC(=O)CC(CC(=O)O)(C(=O)O)O1` (configuration not stated), the negative logarithm of the IC50 (pIC50) was 7.60 and 7.68. In addition, the viability, T/C (compound 0.000316 µM) is 98% and 97.7%. Further, for the setting “compound 0.001 µM”, the viability, T/C is 105% and 96.7%. Under “compound 0.00316 µM”, the viability, T/C was 103% and 105%. Further, for the setting “compound 0.01 µM”, the viability, T/C is 71.3% and 79.3%. Besides, where the note is “compound 0.0316 µM”, the viability, T/C was 45.7% and 33.5%. The viability, T/C (compound 0.1 µM) was 4.13% and 1.05%.
`CC1COCCN1c1cc(-c2ccnn2C)c2ccnc(-c3ccn[nH]3)c2n1` (configuration not stated): the pIC50 was 7.89 and 8.14. Further, the viability, T/C (compound 0.00316 µM) is 89.5% and 71.9%. Besides, where the note is “compound 0.01 µM”, the viability, T/C is 61.3% and 41.6%. Moreover, where the note is “compound 0.0316 µM”, the viability, T/C was 11.2% and 7.14%. Also, the viability, T/C (compound 0.1 µM) is 3.93% and 1.95%. Further, the viability, T/C (compound 0.316 µM) was 2.2% and 2.13%. Under “compound 1 µM”, the viability, T/C was 4.12% and 1.96%.
Regarding `CC[C@@]1(O)C(=O)OCc2c1cc1n(c2=O)Cc2cc3c(CN(C)C)c(O)ccc3nc2-1`, the negative logarithm of the IC50 (pIC50) was 8.14 and 8.15. The viability, T/C (compound 0.000316 µM) was 102% and 96.9%. Also, the viability, T/C (compound 0.001 µM) was 102% and 100%. Besides, the viability, T/C (compound 0.00316 µM) was 78.6% and 75.9%. Besides, under “compound 0.01 µM”, the viability, T/C was 39.1% and 39.4%. The viability, T/C (compound 0.0316 µM) was 7.88% and 7.23%. The viability, T/C (compound 0.1 µM) was 2.74% and 2.23%.
On to `CCc1c2c(nc3ccc(O)cc13)-c1cc3c(c(=O)n1C2)COC(=O)[C@]3(O)CC`, for which the negative-log IC50 (pIC50) was above 9.02. For the setting “compound 0.000949 µM”, the viability, T/C was 4.28% and 3.34%. Besides, the viability, T/C (compound 0.003 µM) was 2.36% and 1.64%. In addition, the viability, T/C (compound 0.00949 µM) is 0.57% and 0.82%. Also, for the setting “compound 0.03 µM”, the viability, T/C is 6.31% and 0.48%. For the same molecule, the viability, T/C (compound 0.0949 µM) is 0.34% and 0.47%. For the same molecule, the viability, T/C (compound 0.3 µM) was 0.83% and 0.64%.
For the molecule `COc1cc(Nc2ncc3c(n2)-c2ccc(Cl)cc2C(c2c(F)cccc2OC)=NC3)ccc1C(=O)O`, the pIC50 was 7.77 and 8.00. Besides, the viability, T/C (compound 0.00316 µM) was 95.4% and 84.5%. For the same molecule, the viability, T/C (compound 0.01 µM) was 64.5% and 50%. Moreover, the viability, T/C (compound 0.0316 µM) was 32.7% and 30%. In addition, the viability, T/C (compound 0.1 µM) is 22.9% and 20.4%. Besides, the viability, T/C (compound 0.316 µM) was 22.6% and 16.1%. Also, the viability, T/C (compound 1 µM) was 19.7% and 15.5%.
On to `Cn1ncnc1C1c2n[nH]c(=O)c3cc(F)cc(c23)NC1c1ccc(F)cc1` (configuration not stated), for which the pIC50 is below 7.00. For the same molecule, where the note is “compound 0.000316 µM”, the viability, T/C is 103% and 101%. The viability, T/C (compound 0.001 µM) was 109% and 102%. The viability, T/C (compound 0.00316 µM) was 106% and 103%. For the same molecule, the viability, T/C (compound 0.01 µM) is 99.4% and 99.5%. Moreover, the viability, T/C (compound 0.0316 µM) is 96.5% and 100%. The viability, T/C (compound 0.1 µM) was 105% and 101%.
As to `Nc1ccn(C2OC(CO)C(O)C2(F)F)c(=O)n1` (configuration not stated), the negative-log IC50 (pIC50) is above 9.02. Where the note is “compound 0.000949 µM”, the viability, T/C is 8.59% and 3.05%. Besides, the viability, T/C (compound 0.003 µM) was 3.76% and 3.9%. Further, the viability, T/C (compound 0.00949 µM) is 3.95% and 4.1%. Moreover, the viability, T/C (compound 0.03 µM) was 3.55% and 2.02%. Further, the viability, T/C (compound 0.0949 µM) is 3.71% and 1.86%. The viability, T/C (compound 0.3 µM) was 1.91% and 1.26%.
On to `Nc1ncn(C2CC(O)C(CO)O2)c(=O)n1` (configuration not stated), for which the negative logarithm of the IC50 (pIC50) is 7.15 and 7.36. For the setting “compound 0.00316 µM”, the viability, T/C was 95.5% and 91.8%. In addition, the viability, T/C (compound 0.01 µM) was 89.1% and 76.3%. Besides, the viability, T/C (compound 0.0316 µM) is 71% and 57.2%. The viability, T/C (compound 0.1 µM) is 40.1% and 33.6%. The viability, T/C (compound 0.316 µM) was 27.4% and 18.6%. Also, the viability, T/C (compound 1 µM) is 19.8% and 12.7%.
For `Nc1ncn(C2CC(O)C(CO)S2)c(=O)n1` (configuration not stated), the pIC50 is 7.85 and 8.17. The viability, T/C (compound 0.000949 µM) is 86.4% and 84.4%. For the same molecule, the viability, T/C (compound 0.003 µM) is 75.9% and 67.9%. For the same molecule, the viability, T/C (compound 0.00949 µM) is 53.8% and 40.1%. Under “compound 0.03 µM”, the viability, T/C is 38.7% and 27.5%. The viability, T/C (compound 0.0949 µM) is 21.2% and 11.8%. Besides, where the note is “compound 0.3 µM”, the viability, T/C is 6.02% and 3.16%.
In the case of `O=C(C=Cn1cnc(-c2cc(C(F)(F)F)cc(C(F)(F)F)c2)n1)NNc1cnccn1`, the negative-log IC50 (pIC50) is 8.24 and 8.35. Also, where the note is “compound 0.00316 µM”, the viability, T/C was 69.8% and 61.6%. Further, the viability, T/C (compound 0.01 µM) was 28.8% and 22.1%. In addition, under “compound 0.0316 µM”, the viability, T/C was 20.3% and 16.5%. The viability, T/C (compound 0.1 µM) was 10.6% and 5.99%. The viability, T/C (compound 0.316 µM) is 6.07% and 1.5%. Further, under “compound 1 µM”, the viability, T/C was 2.27% and 0.91%.
